Assay results reported in patent US20020132817A1, “Heterocyclic compounds, their production and use” (priority 1998, published 2002).

Columns and labels:
substance P receptor = biological target: T1, substance P receptor (Homo sapiens, UniProt P25103); test: Radioligand receptor binding inhibitory activity using receptor from human lymphoblast cells (IM-9); details: 125I-BHSP radioligand, receptor from IM-9 cells, 25° C. for 30 minutes
T1 construct: The receptor was prepared from human lymphoblast cells (IM-9); endogenous in cells; host or cells: IM-9 human lymphoblast cells (membrane preparation)
T1 sequence (P25103 whole entry): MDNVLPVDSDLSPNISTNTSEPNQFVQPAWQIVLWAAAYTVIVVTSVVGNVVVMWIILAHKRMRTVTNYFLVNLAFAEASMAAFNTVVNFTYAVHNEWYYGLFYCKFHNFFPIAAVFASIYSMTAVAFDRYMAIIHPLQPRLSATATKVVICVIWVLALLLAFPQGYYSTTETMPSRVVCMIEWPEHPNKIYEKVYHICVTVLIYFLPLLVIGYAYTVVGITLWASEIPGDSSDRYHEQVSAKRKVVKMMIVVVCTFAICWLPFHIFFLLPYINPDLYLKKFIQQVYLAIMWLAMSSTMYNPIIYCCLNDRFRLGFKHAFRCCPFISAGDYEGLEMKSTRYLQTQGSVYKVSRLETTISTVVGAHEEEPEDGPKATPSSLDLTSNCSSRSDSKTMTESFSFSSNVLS
Protocol: Radioligand receptor binding inhibitory activity Binding inhibitory activity using receptor from human lymphoblast cells (IM-9)
The receptor was prepared from human lymphoblast cells (IM-9). IM-9 cells (2×10^5 cells/ml) were inoculated and incubated for 3 days (one liter), which was then subjected to centrifuge for 5 minutes at 500×g to obtain cell pellets. […] The residue was washed twice with 30 ml of the above-mentioned buffer, which was then preserved frozen (−80° C.) as a specimen of the receptor.
The specimen was suspended in a reaction buffer (50 mM Tri-HCl buffer (pH 7.4), 0.02% bovine serum albumin, 1 mM phenylmethylsulfonyl fluoride, […], […] bacitracin, 3 mM manganese chloride) and 100 ul portion was the suspension was used in the reaction. […] The amount of nonspecific binding was determined by adding substance P at a final concentration of 2×10^−6M. After the reaction, using a cell harvester (290 PHD, Cambridge Technology, Inc, U.S.A.), rapid filtration was carried out through a glass filter (GF/B, Whatman, U.S.A.) to stop the reaction. After washing three times with 250 ul of 50 mM of Tris-HCl buffer (pH 7.4) containing 0.02% bovine serum albumin, the radioactivity remaining on the filter was determined with a gamma counter. Before use, the filter was immersed in 0.1% polyethyleneimine for 24 hours and air-dried.

[1] = tested on: plasma extravasation induced by capsaicin in trachea of guinea pigs; test: Inhibitory effect on plasma extravasation induced by capsaicin in trachea of guinea pigs; format: in vivo; details: Cavia porcellus, iv, 5 minutes before capsaicin, Evans' blue dye in trachea, read-out: ID50, μg/kg, i.v.
Protocol: Guinea pigs (Hartley type white male guinea pige), (n=6) were anesthetized with 35 mg/kg of pentobarbital injected intraperitoneally (i.p.), then test compounds were administered intravenously (i.v.). After 5 minutes, a mixed solution of capsaicin ([…]) and Evans' blue dye (20 mg/kg) was administered intravenously to cause reaction. Ten minutes later, test animals were sacrificed by cutting the aorta, then perfused through pulmonary artery with 50 ml of physiological saline. The trachea was excised, and its wet weight was measure. The trachea was incubated at room temperature in 1 ml of acetone-0.3% sodium sulfate (7:3) overnight and Evans' blue dye was extracted from the trachea. The extract solution was centrifuged at 2800 rpm for 5 minutes. The amount of Evans' blue dye in the supernatant was quantified by measuring absorbance at […].
The reaction of accelerating the permeability of blood vessels is expressed in terms of the amount of Evans' blue (μg) per trachea unit weight (g) and the effect of drug was evaluated by calculating the degree of inhibition (% inhibition) according to the following equation: […]

Row | SMILES | melting point | IC50 (substance P receptor) | ED50 [1]
1 | CC(=O)OCc1cc(-c2ccccc2)c2c(n1)OCCCN(Cc1cc(C(F)(F)F)cc(C(F)(F)F)c1)C2=O [Reference Example 92, 9-Acetoxymethyl-5-[3,5-bis(trifluoromethyl)benzyl]-2,3,4,5-tetrahydro-6-oxo-7-phenyl-6H-pyrido[2,3-b][1,5]oxazocine] | 156 to 157 °C | 740 pM | 
2 | CN(C)Cc1cc(-c2ccccc2)c2c(n1)OCCN(Cc1cc(C(F)(F)F)cc(C(F)(F)F)c1)C2=O [Reference Example 99, 4-[3,5-Bis(trifluoromethyl)benzyl]-8-dimethylaminomethyl-2,3,4,5-tetrahydro-5-oxo-6-phenylpyrido[3,2-f][1,4]oxazepine] | 186 to 188 °C | 120 pM | 
3 | COc1cc(CN2C[C@H](C)CCn3c(c(-c4ccccc4)c4cccnc4c3=O)C2=O)cc(OC)c1 [Example 5, (9R)-7-(3,5-dimethoxybenzyl)-6,7,8,9,10,11-hexahydro-9-methyl-6,13-dioxo-5-phenyl-13H-[1,4]diazosino[2,1-g][1,7]napththylidine] | 199 to 201 °C | 480 pM | 
4 | COc1cc(CN2C[C@H](C)CCn3c(c(-c4ccc(Cl)c(Cl)c4)c4cccnc4c3=O)C2=O)cc(OC)c1 [Example 8, (9R)-7-(3,5-dimethoxybenzyl)-5-(3,4-dichlorophenyl)-6,7,8,9,10,11-hexahydro-9-methyl-6,13-dioxo-13H-[1,4]diazosino[2,1-g][1,7]napththylidine] | 207 to 208 °C | 50 pM | 
5 | Cc1ccc(-c2c3n(c(=O)c4ncccc24)CCCCCN(Cc2cc(C(F)(F)F)cc(C(F)(F)F)c2)C3=O)cc1 [Reference Example 60, 7-[3,5-Bis(trifluoromethyl)benzyl]-6,7,8,9,10,11,12,14-octahydro-5-(4-methylphenyl)-6,14-dioxo[1,4]diazonino[2,1-g][1,7]naphthyridine] |  |  | 11 µg/kg
6 | Cc1cnc2c(c1-c1ccccc1)C(=O)N(Cc1cc(C(F)(F)F)cc(C(F)(F)F)c1)C[C@H](C)CO2 [Reference Example 85, (S)-5-[3,5-Bis(trifluoromethyl)benzyl]-2,3,4,5-tetrahydro-3,8-dimethyl-6-oxo-7-phenyl-6H-pyrido[2,3-b][1,5]oxazocine] | 147 to 148 °C | 360 pM | 
7 | Cc1cc(-c2ccccc2)c2c([n+]1[O-])OCCN(Cc1cc(C(F)(F)F)cc(C(F)(F)F)c1)C2=O [Reference Example 89, 4-[3,5-Bis(trifluoromethyl)benzyl]-2,3,4,5-tetrahydro-8-methyl-5-oxo-6-phenylpyrido[3,2-f][1,4]oxazepine 9-oxide] | 181 to 183 °C | 440 pM | 
8 | C[C@@H]1CCn2c(c(-c3ccc(Cl)c(Cl)c3)c3cccnc3c2=O)C(=O)N(Cc2cc(C(F)(F)F)cc(C(F)(F)F)c2)C1 [Example 7] |  | 830 pM | 
9 | Cc1ccc(-c2c3n(c(=O)c4ncccc24)CC[C@@H](C)CN(Cc2cc(Cl)cc(Cl)c2)C3=O)cc1 [Example 10, (9R)-7-(3,5-dichlorobenzyl)-6,7,8,9,10,11-hexahydro-9-methyl-5-(4-methylphenyl)-6,13-dioxo-13H-[1,4]diazosino[2,1-g][1,7]napththylidine] | 139 to 141 °C | 1000 pM | 
10 | CC(=O)OCc1cc(-c2ccccc2)c2c(n1)OCCN(Cc1cc(C(F)(F)F)cc(C(F)(F)F)c1)C2=O [Reference Example 91, 8-Acetoxymethyl-4-[3,5-bis(trifluoromethyl)benzyl]-2,3,4,5-tetrahydro-5-oxo-6-phenylpyrido[3,2-f][1,4]oxazepine] | 122 to 124 °C | 280 pM | 
11 | CN1CCN(Cc2cc(-c3ccccc3)c3c(n2)OCCN(Cc2cc(C(F)(F)F)cc(C(F)(F)F)c2)C3=O)CC1 [Reference Example 101, 4-[3,5-Bis(trifluoromethyl)benzyl]-2,3,4,5-tetrahydro-8-(N-methylpiperazinomethyl)-5-oxo-6-phenylpyrido[3,2-f][1,4]oxazepine] |  | 200 pM | 
12 | COc1cc(CN2C[C@H](C)CCn3c(c(-c4ccc(Cl)cc4)c4cccnc4c3=O)C2=O)cc(OC)c1 [Example 13, (9R)-5-(4-chlorophenyl)-7-(3,5-dimethoxybenzyl)-6,7,8,9,10,11-hexahydro-9-methyl-6,13-dioxo-13H-[1,4]diazosino[2,1-g][1,7]napththylidine] | 229 to 230 °C | 1100 pM | 

Second part, led by results:

Row | melting point | IC50 (substance P receptor) | SMILES | ED50 [1]
13 | 192 to 193 °C | 1500 pM | COc1cc(CN2C[C@H](C)CCn3c(c(-c4ccc(F)cc4)c4cccnc4c3=O)C2=O)cc(OC)c1 [Example 12, (9R)-7-(3,5-dimethoxybenzyl)-5-(4-fluorophenyl)-6,7,8,9,10,11-hexahydro-9-methyl-6,13-dioxo-13H-[1,4]diazosino[2,1-g][1,7]napththylidine] | 
14 | 137 to 139 °C | 810 pM | Cc1cc(C)cc(CN2C[C@H](C)CCn3c(c(-c4ccc(Cl)c(Cl)c4)c4cccnc4c3=O)C2=O)c1 [Example 11, (9R)-5-(3,4-dichlorophenyl)-7-(3,5-dimethylbenzyl)-6,7,8,9,10,11-hexahydro-9-methyl-6,13-dioxo-13H-[1,4]diazosino[2,1-g][1,7]napththylidine] | 
15 | 282 to 283 °C | 100 pM | Cc1ccc(-c2c3n(c(=O)c4ncccc24)CC(O)CN(Cc2cc(C(F)(F)F)cc(C(F)(F)F)c2)C3=O)cc1 (racemic) [Reference Example 79, (+/−)-7-[3,5-Bis(trifluoromethyl)benzyl]-6,7,8,9,10,12-hexahydro-9-hydroxy-5-(4-methylphenyl)-6,12-dioxo[1,4]diazepino [2,1-g][1,7]naphthyridine] | 
16 | 257 to 258 °C | 880 pM | CC1CCn2c(c(-c3ccccc3)c3cccnc3c2=O)C(=O)N(Cc2cc(C(F)(F)F)cc(C(F)(F)F)c2)C1 (racemic) [Reference Example 69, (+/−)-7-[3,5-Bis(trifluoromethyl)benzyl]-6,7,8,9,10,11-hexahydro-9-methyl-6,13-dioxo-5-phenyl-13H-[1,4]diazocino[2,1-g][1,7]naphthyridine] | 
17 |  | 130 pM | C[C@@H]1CCn2c(c(-c3ccc(Cl)cc3)c3cccnc3c2=O)C(=O)N(Cc2cc(C(F)(F)F)cc(C(F)(F)F)c2)C1 [Example 6, (9R)-7-[3,5-bis(trifluoromethyl)benzyl]-5-(4-chlorophenyl)-6,7,8,9,10,11-hexahydro-9-methyl-6,13-dioxo-13H-[1,4]diazosino[2,1-g][1,7]napththylidine] | 
18 | 258 to 260 °C | 1100 pM | CCC1CCn2c(c(-c3ccc(C)cc3)c3cccnc3c2=O)C(=O)N(Cc2cc(C(F)(F)F)cc(C(F)(F)F)c2)C1 (racemic) [Example 15, (±)-7-[3,5-bis(trifluoromethyl)benzyl]-9-ethyl-6,7,8,9,10,11-hexahydro-5-(4-methylphenyl)-6,13-dioxo-13H-[1,4]diazosino[2,1-g][1,7]napththylidine] | 
19 | 200 to 202 °C | 860 pM | Cc1ccc(-c2c3n(c(=O)c4ncccc24)CC[C@@H](C)CN(Cc2cc(C)cc(C)c2)C3=O)cc1 [Example 9, (9R)-7-(3,5-dimethylbenzyl)-6,7,8,9,10,11-hexahydro-9-methyl-5-(4-methylphenyl)-6,13-dioxo-13H-[1,4]diazosino[2,1-g][1,7]napththylidine] | 
20 |  | 1600 pM | Cc1cnc2c(c1-c1ccccc1)C(=O)N(Cc1cc(C(F)(F)F)cc(C(F)(F)F)c1)CCCO2 [Reference Example 78] | 
21 | 139 to 140 °C | 170 pM | COCc1cc(-c2ccccc2)c2c(n1)OCCN(Cc1cc(C(F)(F)F)cc(C(F)(F)F)c1)C2=O [Reference Example 94, 4-[3,5-Bis(trifluoromethyl)benzyl]-2,3,4,5-tetrahydro-8-methoxymethyl-5-oxo-6-phenylpyrido[3,2-f][1,4]oxazepine] | 
22 | 183 to 184 °C | 420 pM | O=C1c2c(-c3ccccc3)cc(CCl)nc2OCCN1Cc1cc(C(F)(F)F)cc(C(F)(F)F)c1 [Reference Example 93, 4-[3,5-Bis(trifluoromethyl)benzyl]-8-chloromethyl-2,3,4,5-tetrahydro-5-oxo-6-phenylpyrido[3,2-f][1,4]oxazepine] | 
